# The OPERA property sets (Mansouri et al. 2018)
# Details: not given
row,SMILES,logP
1,O=C(NCN1CCOCC1)c1ccccc1O,1.27
2,CC(C)(C)C(=O)OCOc1ccccc1C(N)=O,2
3,CC(=O)OCOc1ccccc1C(=O)NCN1CCOCC1,0.27
4,CCCC(=O)OCOc1ccccc1C(N)=O,1.66
5,CCOC(=O)CC(CO)C(CC)c1cncn1C (stereo not given),0.73

# More lines, now with the values ahead:
row,logP,SMILES
1,1.81,CC(C)(C)C(=O)OCOc1ccccc1C(=O)NCN1CCOCC1
2,4.6,CCC(C(=O)OCCc1ccccc1)C(COC(=O)c1ccccc1)Cc1cncn1C (stereo not given)
3,0.52,CC(=O)OCOc1ccccc1C(N)=O
4,1.34,CCCC(=O)OCOc1ccccc1C(=O)NCN1CCOCC1

# Same assay, conditions: 23 °C
row,solubility,SMILES
1,2430 µM,CC(C)(C)C(=O)OCOc1ccccc1C(N)=O
